Results reported in EP4640688A1, “AVERMECTIN DERIVATIVE” (Meiji Seika Pharma Co., Ltd., priority 2022, dated 2024).

Tested on: SARS-CoV-2
Type: cell-based
Conditions: concentration reducing replication to 50% vs control, read-out: Antiviral activity

Question: CCC(C)C1OC2(CCC1C)CC1CC(CC=C(C)C(OC3CC(OC)C(OC4CC(OC)C(O)C(C)O4)C(C)O3)C(C)C=CC=C3COC4C(=NO)C(C)CC(C(=O)O1)C34O)O2 (centres unmarked) [Compound I-1] was tested. Which IC50 did it give?
Answer: < 1000 nM

Question: With CCC(C)C1OC2(CCC1C)CC1CC(CC=C(C)C(OC3CC(OC)C(OC4CC(OC)C(O)C(C)O4)C(C)O3)C(C)C=CC=C3COC4C(=NOCC(=O)NC)C(C)=CC(C(=O)O1)C34O)O2 (centres unmarked) [Compound I-124] as the compound, how does the IC50 read?
Answer: < 1000 nM
